Data: patent US20070232588A1, “Anti-parasitic and/or anti-viral and/or anti-microbial compositions” (priority 2004, published 2007)
Values after ≈ are worked out from the molar mass of the structure shown.

Legend:
[1] = Countercurrent distribution, KrKb (partition coefficient x dissociation constant); assay type: physicochemical
Experimental: The diverse tertiary alkaloids contained in the basic extract of Example 1, were separated by countercurrent distribution, with dichloromethane as the stationary phase and an aqueous buffer with an incrementally decreasing pH (mobile phase). The alkaloids were recovered from the aqueous phase by extraction with dichloromethane.
The equipment used was a Craig type Post apparatus made up of 200 glass tubes (with 10 ml volumes for the lower phase and 10 ml volumes for the upper phase).

[2] = test system: Leishmania infantum promastigotes; test: In vitro leishmanicidal activity, MTT assay; assay type: cell-based; conditions: for Fold Increase (IC50), voacamine with respect to the basic extract: ratio of IC50
Experimental: Preparation of the anti-leishmanial compositions: The total plant extract was dissolved in DMSO as a 50 mg/mL stock. The purified alkaloid, voacamine, was dissolved in 50% DMSO at a 3 mg/mL stock.
In vitro drug testing. […] 10 μL of 3-(4,5-dimethylthiazol-2-yl)-2,5-diphenyl-2H-tetrazol bromide (MTT, Sigma, 5 mg/mL in PBS) were added to each well and plates were incubated for an additional period of 5 hours. Only viable cells are able to reduce the MTT compound to produce water-insoluble formazan crystals of a purple color. These crystals were dissolved by adding 100 μL of SDS 20% and incubating overnight at 37° C. The absorbance was subsequently read at 540 nanometers using a microplate reader (Beckman Biomek 2000). Cell survival was determined by dividing the absorbance of the compound at a given concentration by the absorbance of control cells grown in the absence of drug. The 50% inhibitory concentration (IC50) values were graphically determined after plotting the percentage of growth as a function of drug concentration. All experiments were performed in duplicate.

[3] = test system: Plasmodium falciparum Strain W2; test: In vitro antiplasmodial activity (IC50), strain W2; assay type: cell-based
Experimental: (§1) The basic extracts obtained as in Example 1, from both the root and stem bark with a yield of 1.9% were used to carry out the in vitro antiplasmodial activity study on known Plasmodium falciparum strains.
(§2) Plasmodium falciparum strains D6 and W2 were used throughout this investigation. Laboratory isolates of P. falciparum were grown under controlled conditions in culture medium containing leukocyte-free red blood cells (RBCs) at 5% hematocrit (Tager and Jensen, 1976). Briefly, parasites were allowed to infect RBCs in a media consisting of RPMI 1640 plus 25 mM Hepes, 0.25 glucose, 0.2% sodium bicarbonate, 0.5% Albumax II, and 50 mg/liter hypoxanthine and grown in 5% CO2 at 37° C. […]
(§3) Assessment of parasite development and morphology. Parasite development and morphology were evaluated by microscopic examination of Giemsa-stained thin blood smears at 24, 48, and 72 hour intervals in the presence of increasing doses of the alkaloids dissolved as a stock solution in 10% (v/v) dimethylsulphoxide (DMSO) in RPMI 1640. […] Smears from drug-free cultures were always used as controls Parasitemia was measured by counting blood cells and expressed as percentage of total parasitized erythrocytes (Table 3).

[4] = test system: Plasmodium falciparum Strain D6; test: In vitro antiplasmodial activity (IC50), strain D6; assay type: cell-based
Experimental: as §1, §2, §3

In the case of `CC=C1CN(C)C2Cc3c([nH]c4ccccc34)C(=O)CC1C2CO` (stereo not drawn) [16-epi-affinine], the “KrKb (Kr partition coefficient aqueous phase/organic phase, Kb dissociation constant)” value [1] is reported as 2.5×10^−9.

In the case of `CC=C1CN(C)C2Cc3c([nH]c4ccccc34)C(c3cc4[nH]c5c(c4cc3OC)CCN3CC4CC(CC)C3C5(C(=O)OC)C4)CC1C2C(=O)OC` (stereo not drawn) [Ex. 2, voacamine], the IC90 ([2]; Leishmania infantum, 72 h) is reported as 7 µg/mL (≈ 9.93 µM), the IC50 ([2]; Leishmania infantum, 72 h, read-out: IC50 (concentration required to kill 50% of the parasites)) is reported as 3.3 µg/mL (≈ 4.68 µM) and the “concentration producing complete cellular destruction” value ([2]; before 72 hours) is reported as 10 µg/mL. The “Fold Increase (IC50), voacamine with respect to the basic extract” value ([2]; listed as Voacamine) was 20.7 fold, the “Fold Increase (IC50), voacamine with respect to the basic extract” value ([2]; listed as voacamine) was 20 fold and the “Fold Increase (IC90), voacamine with respect to the basic extract” value ([2]; ratio of IC90) was 15.7 fold. The IC50 [3] was 0.29 µg/mL (≈ 0.411 µM) and the IC50 [4] was 0.238 µg/mL (≈ 0.338 µM).

In the case of `C/C=C1/CN2[C@H]3Cc4c(n(C)c5ccccc45)[C@@H]2C[C@@H]1[C@@]3(CO)C(=O)OC` [voachalotine], the “KrKb (Kr partition coefficient aqueous phase/organic phase, Kb dissociation constant)” value [1] is reported as 2×10^−11.

For N-demethylvoacamine, the “KrKb (Kr partition coefficient aqueous phase/organic phase, Kb dissociation constant)” value [1] was 3.5×10^−11.

For `C/C=C1/CN2[C@H]3C[C@@H]1[C@@H](CO)[C@@H]2Cc1c3n(C)c2ccccc12` [affinisine], the “KrKb (Kr partition coefficient aqueous phase/organic phase, Kb dissociation constant)” value [1] was 7×10^−10.
